In article PMC11999280, “Design and screening of novel endosomal escape compounds that enhance functional delivery of oligonucleotides in vitro” (Molecular Therapy. Nucleic Acids, 2025):

Columns and labels:
Format in all cases: cell-based
[1] = test system: mCherry-GAL9 expressing HepG2 cells; assay: GAL9 recruitment assay, HepG2; details: calculated mean from >3 independent exp.
Summary of the method: (§1)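 Readout is GAL9 relocalization to damaged endosomes, scored as mCherry-GAL9 structures counted in confocal images after fixation in 4% paraformaldehyde and Hoechst 33342 nuclear staining. Compounds were applied in dose-response to stably expressing cells seeded one day earlier; three independent experiments with duplicate wells.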

[2] = test system: mCherry-GAL9 expressing 16HBE cells; assay: GAL9 recruitment assay, 16HBE; details: calculated mean from >3 independent exp.
Summary of the method: as §1

[3] = test system: mCherry-GAL9 expressing HEK293 cells; assay: GAL9 recruitment assay, HEK293; details: calculated mean from >3 independent exp.
Summary of the method: as §1

[4] = test system: mCherry-GAL9 expressing SHSY5Y cells; assay: GAL9 recruitment assay, SHSY5Y; details: calculated mean from >3 independent exp.
Summary of the method: as §1

[5] = test system: mCherry-GAL9 expressing HeLa cells; assay: GAL9 recruitment assay, HeLa; details: calculated mean from >3 independent exp.
Summary of the method: as §1

[6] = test system: mCherry-GAL9 expressing U2OS cells; assay: GAL9 recruitment assay, U2OS; details: calculated mean from >3 independent exp.
Summary of the method: as §1

[7] = test system: HeLa_Luc705 cells (pLuc/705 splice-switching reporter); assay: Functional 705-SSO delivery, luciferase splice-switching assay; details: HeLa-Luc705 + 2 µM SSO; EEE 2.5 - 3 µM; mean from >3 independent experiments
Summary of the method: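 Splice correction was measured as firefly luciferase luminescence in Triton X-100 lysates taken 24 h after enhancer treatment. Before treatment, the 10,000 cells/well had spent 24 h with 1–2 μM 705-SSO (2′-OMe, phosphorothioate). For comparison, 100–200 nM SSO was lipofected with LF2000.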

[8] = test system: mCherry-GAL9 expressing HuH7 cells; assay: GAL9 recruitment assay, HuH7; details: calculated mean from >3 independent exp.
Summary of the method: as §1

[9] = test system: mCherry-GAL9 expressing NCI-H358 cells; assay: GAL9 recruitment assay, NCI-H358; details: calculated mean from >3 independent exp.
Summary of the method: as §1

## COc1nn(C2CCN(C)CC2)cc1Nc1ncc(Cl)c(-n2ccc3c(C#N)cccc32)n1 [EEE17]
[1]; EEE 0.31 µM
  Gal9 response compared to reference: 0.009
[1]; EEE 0.62 µM
  Gal9 response compared to reference: 0.008
[1]; EEE 1.25 µM
  Gal9 response compared to reference: 0.008
[1]; EEE 2.5 µM
  Gal9 response compared to reference: 0.011
[1]; EEE 5 µM
  Gal9 response compared to reference: 0.010
[1]; EEE 10 µM
  Gal9 response compared to reference: 0.030
[2]; EEE 0.31 µM
  Gal9 response compared to reference: 0.008
[2]; EEE 0.62 µM
  Gal9 response compared to reference: 0.010
[2]; EEE 1.25 µM
  Gal9 response compared to reference: 0.008
[2]; EEE 2.5 µM
  Gal9 response compared to reference: 0.010
[2]; EEE 5 µM
  Gal9 response compared to reference: 0.048
[2]; EEE 10 µM
  Gal9 response compared to reference: 0.488
[3]; EEE 0.31 µM
  Gal9 response compared to reference: 0.023
[3]; EEE 0.62 µM
  Gal9 response compared to reference: 0.022
[3]; EEE 1.25 µM
  Gal9 response compared to reference: 0.019
[3]; EEE 2.5 µM
  Gal9 response compared to reference: 0.019
[3]; EEE 5 µM
  Gal9 response compared to reference: 0.096
[3]; EEE 10 µM
  Gal9 response compared to reference: 0.437
[4]; EEE 0.31 µM
  Gal9 response compared to reference: 0.014
[4]; EEE 0.62 µM
  Gal9 response compared to reference: 0.013
[4]; EEE 1.25 µM
  Gal9 response compared to reference: 0.012
[4]; EEE 2.5 µM
  Gal9 response compared to reference: 0.014
[4]; EEE 5 µM
  Gal9 response compared to reference: 0.176
[4]; EEE 10 µM
  Gal9 response compared to reference: 0.610
[5]; EEE 0.31 µM
  Gal9 response compared to reference: 0.005
[5]; EEE 0.62 µM
  Gal9 response compared to reference: 0.004
[5]; EEE 1.25 µM
  Gal9 response compared to reference: 0.004
[5]; EEE 2.5 µM
  Gal9 response compared to reference: 0.004
[5]; EEE 5 µM
  Gal9 response compared to reference: 0.012
[5]; EEE 10 µM
  Gal9 response compared to reference: 0.201
[6]; EEE 0.31 µM
  Gal9 response compared to reference: 0.012
[6]; EEE 0.62 µM
  Gal9 response compared to reference: 0.011
[6]; EEE 1.25 µM
  Gal9 response compared to reference: 0.013
[6]; EEE 2.5 µM
  Gal9 response compared to reference: 0.015
[6]; EEE 5 µM
  Gal9 response compared to reference: 0.021
[6]; EEE 10 µM
  Gal9 response compared to reference: 0.155
[7]
  Luciferase expression compared to reference: 0.752
[8]; EEE 0.31 µM
  Gal9 response compared to reference: 0.007
[8]; EEE 0.62 µM
  Gal9 response compared to reference: 0.007
[8]; EEE 1.25 µM
  Gal9 response compared to reference: 0.010
[8]; EEE 2.5 µM
  Gal9 response compared to reference: 0.017
[8]; EEE 5 µM
  Gal9 response compared to reference: 0.021
[8]; EEE 10 µM
  Gal9 response compared to reference: 0.132
[9]; EEE 0.31 µM
  Gal9 response compared to reference: 0.016
[9]; EEE 0.62 µM
  Gal9 response compared to reference: 0.019
[9]; EEE 1.25 µM
  Gal9 response compared to reference: 0.014
[9]; EEE 2.5 µM
  Gal9 response compared to reference: 0.018
[9]; EEE 5 µM
  Gal9 response compared to reference: 0.028
[9]; EEE 10 µM
  Gal9 response compared to reference: 0.303
